Assay results: US5030760A, “Tetrahydrophthalimides, and their production and use” (Sumitomo Chemical Company, Ltd., priority 1981, dated 1991)

What was measured:
soybean = assay: Test Example 5, spraying over the top, phytotoxicity to soybean; assay type: in vivo; details: sprayed over the top, 20 days
Method: (§1) The application of the tetrahydrophthalimides (I) as herbicides will be illustratively shown in the following Examples wherein the phytotoxicity to cultivated plants and the herbicidal activity on weeds were evaluated as follows: the aerial parts of the test plants were cut off and weighed (fresh weight); the percentage of the fresh weight of the treated plant to that of the untreated plant was calculated with the latter fresh weight taken as 100; and the crop damage and the herbicidal activity were evaluated by the standard given in the table below. The rating values of phytotoxicity, 0 and 1, and those of herbicidal effect, 5 and 4, are generally regarded as satisfactory to protect cultivated plants and control weeds, respectively. The rating values in the paddy field test alone were calculated from the dry weight of the test plants.
(§2) Plastic trays (35 cm×25 cm×15 cm) were filled with upland field soil, and the seeds of tall morningglory, velvetleaf, jimsonweed, sicklepod, hemp sesbania, prickly side, Johnsongrass, green foxtail and large crabgrass and the seeds of soybean were sown therein. A designed amount of the test compound formulated into a wettable powder according to Preparation Example 1 and dispersed in water was sprayed over the top by means of a small hand sprayer at a spray volume of 5 liters per are. After the spraying, the test plants were grown in greenhouse for 20 days, and phytotoxicity and herbicidal activity were examined.

arrowhead [1] = assay: Test Example 6, paddy pot perfusion, herbicidal activity; assay type: in vivo, Sagittaria pygmaea; details: 3 weeks, dry weight
Method: as §1
(§3) Wagner's pots (1/5000 are) were filled with paddy field soil containing the seeds of broad-leaved weeds (e.g. monochoria, false pimpernel, toothcup) and the seeds of barnyardgrass and hardstem bulrush, and water was poured therein until the depth of water became 4 cm. Rice seedlings of the 3.5-leaf stage and the tubers of arrowhead were transplanted therein and grown for 2 days in a greenhouse. A designed amount of the test compound formulated in an emulsifiable concentrate according to Preparation Example 2 was applied to the pots by perfusion. Thereafter, the test plants were grown for an additional 3 weeks in the greenhouse, and herbicidal activity and phytotoxicity were examined. In this treatment, the emulsifiable concentrate was dispersed in water for application at a perfusion volume of 10 liters per are.

cocklebur = assay: Test Example 2, field foliar treatment, herbicidal activity; assay type: in vivo, Xanthium pennsylvanicum; details: 3 weeks
Method: as §1
(§4) Seeds of corn and broad-leaved weeds such as cocklebur, common purslane and tall morningglory were sown in the field as previously laid up in ridges, each ridge having an upper width of 1 m. At the time when the corn grew up to the 6-leaf stage and the broad-leaved weeds up to 2 to 5-leaf stages, a designed amount of the test compound formulated into an emulsifiable concentrate according to Preparation Example 2 and dispersed in water was sprayed to the foliage of the test plants with three replications over the top by means of a small hand sprayer at a spray volume of 5 liters per are. After cultivation for 3 weeks, herbicidal activity and phytotoxicity were examined.

hemp sesbania = assay: Test Example 5, spraying over the top, herbicidal activity; assay type: in vivo, Sesbania exaltator; details: sprayed over the top, 20 days
Method: as §1, §2

velvetleaf = assay: as above; assay type: in vivo, Abutilon theophrasti; details: sprayed over the top, 20 days
Method: as §1, §2

broad-leaved weed [2] = assay: Test Example 6, paddy pot perfusion, herbicidal activity; assay type: in vivo, monochoria, false pimpernel, toothcup; details: 3 weeks, dry weight
Method: as §1, §3

broad-leaved weed [3] = assay: Test Example 7, flooded paddy pot dripping, herbicidal activity; assay type: in vivo; details: 3 weeks
Method: as §1
(§5) Wagner's pots (1/5000 are) were filled with paddy field soil and water was poured therein to make a flooded condition. Rice seedlings of the 3-leaf stage were transplanted and tubers of slender spikerush and arrowhead and the seeds of barnyardgrass, monochoria and broad-leaved weed were sowed therein and grown for 5 days. When germination occurs, a designed amount of the test compound formulated into an emulsifiable concentrate according to Preparation Example 2 was applied to the pots by dripping. The test plants were grown for a further 3 weeks, and herbicidal activity and phytotoxicity were examined. The herbicidal activity was evaluated in figures ranging from 0 to 5. The phytotoxicity to the crop plants was also indicated on the same standard as that of the herbicidal activity.

corn = assay: Test Example 3, soil surface spraying, phytotoxicity to corn; assay type: in vivo; details: 20 days
Method: as §1
(§6) Plastic trays (35 cm×25 cm×15 cm) were filled with upland field soil, and the seeds of tall morningglory, velvetleaf and sicklepod and the seeds of corn were sown therein. A designed amount of the test compounds formulated into a wettable powder according to Preparation Example 1 was dispersed in water and applied by spraying at a spray volume of 5 liters per are to the whole surface of the soil. After the spraying, the test plants were placed in a greenhouse and grown for 20 days, and herbicidal activity and phytotoxicity were examined.

sicklepod = assay: Test Example 5, spraying over the top, herbicidal activity; assay type: in vivo, Cassia obtusifolia; details: sprayed over the top, 20 days
Method: as §1, §2

slender spikerush = assay: Test Example 7, flooded paddy pot dripping, herbicidal activity; assay type: in vivo, Eleocharis acicularis; details: 3 weeks
Method: as §1, §5

tall morningglory [4] = assay: Test Example 2, field foliar treatment, herbicidal activity; assay type: in vivo, Ipomoea purpurea; details: 3 weeks
Method: as §1, §4

monochoria = assay: Test Example 7, flooded paddy pot dripping, herbicidal activity; assay type: in vivo, Monochoria vaginalis; details: 3 weeks
Method: as §1, §5

arrowhead [5] = assay: as above; assay type: in vivo, Sagittaria pygmaea; details: 3 weeks
Method: as §1, §5

tall morningglory [6] = assay: Test Example 5, spraying over the top, herbicidal activity; assay type: in vivo, Ipomoea purpurea; details: sprayed over the top, 20 days
Method: as §1, §2

barnyardgrass = assay: Test Example 7, flooded paddy pot dripping, herbicidal activity; assay type: in vivo, Echinochloa crus-galli; details: 3 weeks
Method: as §1, §5

rice plant = assay: Test Example 7, flooded paddy pot dripping, phytotoxicity to rice plant; assay type: in vivo; details: 3 weeks
Method: as §1, §5

prickly sida = assay: Test Example 5, spraying over the top, herbicidal activity; assay type: in vivo, Sida spinosa; details: sprayed over the top, 20 days
Method: as §1, §2

Johnsongrass = assay: as above; assay type: in vivo, Sorghum halepense; details: sprayed over the top, 20 days
Method: as §1, §2

tall morningglory [7] = assay: Test Example 3, soil surface spraying, herbicidal activity; assay type: in vivo, Ipomoea purpurea; details: 20 days
Method: as §1, §6
Also: ranges in brackets are in %.

Compound: O=C1C2=C(CCCC2)C(=O)N1c1ccc(Cl)cc1F [A, 2-fluoro-4-chlorophenyltetrahydrophthalimide, reference compound]
- Phytotoxicity, Soybean (soybean; 10 g/are): 1 (90-99)
- Phytotoxicity, Soybean (soybean; 20 g/are): 2 (80-89)
- Herbicidal activity, Arrowhead (arrowhead [1]; 1.25 g/are): 0 (61-100)
- Herbicidal activity, Arrowhead (arrowhead [1]; 2.5 g/are): 0 (61-100)
- Herbicidal activity, Cocklebur (cocklebur; 0.63 g/are): 1 (41-60)
- Herbicidal activity, Cocklebur (cocklebur; 1.25 g/are): 4 (1-10)
- Herbicidal activity, Hemp sesbania (hemp sesbania; 10 g/are): 3 (11-20)
- Herbicidal activity, Hemp sesbania (hemp sesbania; 20 g/are): 5 (0)
- Herbicidal activity, Velvetleaf (velvetleaf; 10 g/are): 5 (0)
- Herbicidal activity, Velvetleaf (velvetleaf; 20 g/are): 5 (0)
- Herbicidal activity, Broad-leaved weed (broad-leaved weed [2]; 1.25 g/are): 5 (0)
- Herbicidal activity, Broad-leaved weed (broad-leaved weed [2]; 2.5 g/are): 5 (0)
- Herbicidal activity, Broad-leaved weed (broad-leaved weed [3]; 2.5 g/are): 4 (70-89)
- Herbicidal activity, Broad-leaved weed (broad-leaved weed [3]; 5 g/are): 5 (90-100)
- Herbicidal activity, Broad-leaved weed (broad-leaved weed [3]; 10 g/are): 5 (90-100)
- Phytotoxicity, Corn (corn; 5 g/are): 2 (80-89)
- Phytotoxicity, Corn (corn; 10 g/are): 3 (60-79)
- Herbicidal activity, Sicklepod (sicklepod; 10 g/are): 1 (41-60)
- Herbicidal activity, Sicklepod (sicklepod; 20 g/are): 2 (21-40)
- Herbicidal activity, Slender spikerush (slender spikerush; 2.5 g/are): 2 (30-49)
- Herbicidal activity, Slender spikerush (slender spikerush; 5 g/are): 3 (50-69)
- Herbicidal activity, Slender spikerush (slender spikerush; 10 g/are): 4 (70-89)
- Herbicidal activity, Tall morningglory (tall morningglory [4]; 0.63 g/are): 2 (21-40)
- Herbicidal activity, Tall morningglory (tall morningglory [4]; 1.25 g/are): 2 (21-40)
- Herbicidal activity, Monochoria (monochoria; 2.5 g/are): 4 (70-89)
- Herbicidal activity, Monochoria (monochoria; 5 g/are): 5 (90-100)
- Herbicidal activity, Monochoria (monochoria; 10 g/are): 5 (90-100)
- Herbicidal activity, Allowhead (arrowhead [5]; 2.5 g/are): 2 (30-49)
- Herbicidal activity, Allowhead (arrowhead [5]; 5 g/are): 3 (50-69)
- Herbicidal activity, Allowhead (arrowhead [5]; 10 g/are): 3 (50-69)
- Herbicidal activity, Tall morningglory (tall morningglory [6]; 10 g/are): 0 (61-100)
- Herbicidal activity, Tall morningglory (tall morningglory [6]; 20 g/are): 1 (41-60)
- Herbicidal activity, Barnyardgrass (barnyardgrass; 2.5 g/are): 1 (10-29)
- Herbicidal activity, Barnyardgrass (barnyardgrass; 5 g/are): 3 (50-69)
- Herbicidal activity, Barnyardgrass (barnyardgrass; 10 g/are): 4 (70-89)
- Phytotoxicity, Rice plant (rice plant; 2.5 g/are): 1 (10-29)
- Phytotoxicity, Rice plant (rice plant; 5 g/are): 1 (10-29)
- Phytotoxicity, Rice plant (rice plant; 10 g/are): 2 (30-49)
- Herbicidal activity, Prickly sida (prickly sida; 10 g/are): 5 (0)
- Herbicidal activity, Prickly sida (prickly sida; 20 g/are): 5 (0)
- Herbicidal activity, Johnsongrass (Johnsongrass; 10 g/are): 4 (1-10)
- Herbicidal activity, Johnsongrass (Johnsongrass; 20 g/are): 5 (0)
- Herbicidal activity, Tall morningglory (tall morningglory [7]; 5 g/are): 0 (61-100)
- Herbicidal activity, Tall morningglory (tall morningglory [7]; 10 g/are): 0 (61-100)

Compound: CC(C)Oc1cc(N2C(=O)C3=C(CCCC3)C2=O)c(Cl)cc1Cl [B, 2,4-dichloro-5-isopropoxyphenyltetrahydrophthalimide, reference compound]
- Phytotoxicity, Soybean (soybean; 10 g/are): 0 (100)
- Phytotoxicity, Soybean (soybean; 20 g/are): 0 (100)
- Herbicidal activity, Arrowhead (arrowhead [1]; 1.25 g/are): 0 (61-100)
- Herbicidal activity, Arrowhead (arrowhead [1]; 2.5 g/are): 0 (61-100)
- Herbicidal activity, Cocklebur (cocklebur; 0.63 g/are): 2 (21-40)
- Herbicidal activity, Cocklebur (cocklebur; 1.25 g/are): 4 (1-10)
- Herbicidal activity, Hemp sesbania (hemp sesbania; 10 g/are): 1 (41-60)
- Herbicidal activity, Hemp sesbania (hemp sesbania; 20 g/are): 2 (21-40)
- Herbicidal activity, Velvetleaf (velvetleaf; 10 g/are): 4 (1-10)
- Herbicidal activity, Velvetleaf (velvetleaf; 20 g/are): 5 (0)
- Herbicidal activity, Broad-leaved weed (broad-leaved weed [2]; 1.25 g/are): 5 (0)
- Herbicidal activity, Broad-leaved weed (broad-leaved weed [2]; 2.5 g/are): 5 (0)
- Phytotoxicity, Corn (corn; 5 g/are): 0 (100)
- Phytotoxicity, Corn (corn; 10 g/are): 0 (100)
- Herbicidal activity, Sicklepod (sicklepod; 10 g/are): 0 (61-100)
- Herbicidal activity, Sicklepod (sicklepod; 20 g/are): 2 (21-40)
- Herbicidal activity, Tall morningglory (tall morningglory [4]; 0.63 g/are): 3 (11-20)
- Herbicidal activity, Tall morningglory (tall morningglory [4]; 1.25 g/are): 4 (1-10)
- Herbicidal activity, Tall morningglory (tall morningglory [6]; 10 g/are): 0 (61-100)
- Herbicidal activity, Tall morningglory (tall morningglory [6]; 20 g/are): 0 (61-100)
- Herbicidal activity, Prickly sida (prickly sida; 10 g/are): 3 (11-20)
- Herbicidal activity, Prickly sida (prickly sida; 20 g/are): 4 (1-10)
- Herbicidal activity, Johnsongrass (Johnsongrass; 10 g/are): 2 (21-40)
- Herbicidal activity, Johnsongrass (Johnsongrass; 20 g/are): 3 (11-20)
- Herbicidal activity, Tall morningglory (tall morningglory [7]; 5 g/are): 0 (61-100)
- Herbicidal activity, Tall morningglory (tall morningglory [7]; 10 g/are): 0 (61-100)
